Results: patent publication US20220313698A1, “MODULATORS OF CYSTIC FIBROSIS TRANSMEMBRANE CONDUCTANCE REGULATOR” (Vertex Pharmaceuticals Incorporated, priority 2019, published 2022)

Target: CFTR-mediated chloride transport (Homo sapiens, UniProt P13569)
Experiment: Corrector Assay A - membrane potential dye assay (enteroid cells)
Conditions: for EC50: read-out: Corrector Assay A EC50, human intestinal enteroid cells, 18-24 h incubation, acute 10 μM forskolin + 300 nM ivacaftor
[1] = % of chloride transport of triple combination control (1 μM (14S)-dispiro macrocycle + 3 μM tezacaftor + 300 nM ivacaftor)

SMILES	Corrector Assay A % activity [1]	EC50 [nM]	Corrector Assay A % activity (given as a number, not a class symbol, % of triple combination control) [%]
CC(C)(C)c1ccc2c(n1)N1C[C@@H](CCC(CCC(C3CC3)C3CC3)Nc3cccc(n3)S(=O)(=O)NC2=O)CC1(C)C (single isomer, unassigned) [Compound 51]	+ (+ is <30%)	> 3000	–
CC(C)(C)c1ccc2c(n1)N1C[C@@H](CCC(CCC(C3CC3)C3CC3)Nc3cccc(n3)S(=O)(=O)NC2=O)CC1(C)C (single isomer, unassigned) [Compound 52]	++ (++ is 30-60%)	< 1000	–
CC(C)(C)NCc1ccnc([C@@H]2CC[C@@H]3CN(c4nc(C(C)(C)C)ccc4C(=O)NS(=O)(=O)c4cccc(n4)N2)C(C)(C)C3)c1 (single isomer, unassigned) [Compound 61]	+++ (+++ is >60%)	< 1000	–
CC(C)(C)NCc1ccnc([C@@H]2CC[C@@H]3CN(c4nc(C(C)(C)C)ccc4C(=O)NS(=O)(=O)c4cccc(n4)N2)C(C)(C)C3)c1 (single isomer, unassigned) [Compound 62]	++ (++ is 30-60%)	1000 to 3000	–
CC(C)(C)c1ccc2c(n1)N1C[C@@H](CC[C@@H](c3cc(-c4cn[nH]c4)ccn3)Nc3cccc(n3)S(=O)(=O)NC2=O)CC1(C)C (single isomer, unassigned) [Compound 68]	+++ (+++ is >60%)	< 1000	–
CC(C)(C)c1ccc2c(n1)N1C[C@@H](CC[C@@H](c3cc(-c4cn[nH]c4)ccn3)Nc3cccc(n3)S(=O)(=O)NC2=O)CC1(C)C (single isomer, unassigned) [Compound 69]	++ (++ is 30-60%)	< 1000	–
CC(C)(C)c1ccc2c(n1)N1C[C@@H](CC[C@@H](c3cc(-c4cc[nH]n4)ccn3)Nc3cccc(n3)S(=O)(=O)NC2=O)CC1(C)C (single isomer, unassigned) [Compound 73]	+++ (+++ is >60%)	< 1000	–
CC(C)(C)c1ccc2c(n1)N1C[C@@H](CC[C@@H](c3cc(-c4cc[nH]n4)ccn3)Nc3cccc(n3)S(=O)(=O)NC2=O)CC1(C)C (single isomer, unassigned) [Compound 74]	++ (++ is 30-60%)	< 1000	–
CC(C)(C)c1ccc2c(n1)N1C[C@@H](CC[C@@H](c3cc(CCN)ccn3)Nc3cccc(n3)S(=O)(=O)NC2=O)CC1(C)C (single isomer, unassigned) [Compound 84]	+++ (+++ is >60%)	< 1000	–
CN(C)Cc1ccnc([C@@H]2CC[C@@H]3CN(c4nc(C(C)(C)C)ccc4C(=O)NS(=O)(=O)c4cccc(n4)N2)C(C)(C)C3)c1 (single isomer, unassigned) [Compound 86]	++ (++ is 30-60%)	< 1000	–
CN(C)Cc1ccnc([C@@H]2CC[C@@H]3CN(c4nc(C(C)(C)C)ccc4C(=O)NS(=O)(=O)c4cccc(n4)N2)C(C)(C)C3)c1 (single isomer, unassigned) [Compound 87]	+ (+ is <30%)	< 1000	–
COC(=O)NCc1ccnc(C2CC[C@@H]3CN(c4nc(C(C)(C)C)ccc4C(=O)NS(=O)(=O)c4cccc(n4)N2)C(C)(C)C3)c1 (single isomer, unassigned) [Compound 107]	++ (++ is 30-60%)	< 1000	–
COC(=O)NCc1ccnc(C2CC[C@@H]3CN(c4nc(C(C)(C)C)ccc4C(=O)NS(=O)(=O)c4cccc(n4)N2)C(C)(C)C3)c1 (single isomer, unassigned) [Compound 108]	++ (++ is 30-60%)	< 1000	–
CC(C)(C)c1ccc2c(n1)N1C[C@@H](CCC(c3cc(CCCN)ccn3)Nc3cccc(n3)S(=O)(=O)NC2=O)CC1(C)C (single isomer, unassigned) [Compound 109]	+++ (+++ is >60%)	< 1000	–
CC(C)(C)c1ccc2c(n1)N1C[C@@H](CCC(c3cc(CCCN)ccn3)Nc3cccc(n3)S(=O)(=O)NC2=O)CC1(C)C (single isomer, unassigned) [Compound 110]	+ (+ is <30%)	> 3000	–
CC(C)(C)OC(=O)NCc1ccnc(C2CC[C@@H]3CN(c4nc(C(C)(C)C)ccc4C(=O)NS(=O)(=O)c4cccc(n4)N2)C(C)(C)C3)c1 (single isomer, unassigned) [Compound 119]	+++ (+++ is >60%)	< 1000	–
CC(C)(C)OC(=O)NCc1ccnc(C2CC[C@@H]3CN(c4nc(C(C)(C)C)ccc4C(=O)NS(=O)(=O)c4cccc(n4)N2)C(C)(C)C3)c1 (single isomer, unassigned) [Compound 120]	+++ (+++ is >60%)	< 1000	–
CC(C)(C)c1ccc2c(n1)N1C[C@@H](CC[C@@H](c3cc(C4CCOCC4)ccn3)Nc3cccc(n3)S(=O)(=O)NC2=O)CC1(C)C (single isomer, unassigned) [Compound 121]	+++ (+++ is >60%)	< 1000	–
CC(C)(C)c1ccc2c(n1)N1C[C@@H](CC[C@@H](c3cc(C4CCOCC4)ccn3)Nc3cccc(n3)S(=O)(=O)NC2=O)CC1(C)C (single isomer, unassigned) [Compound 122]	++ (++ is 30-60%)	< 1000	–
CC(C)(C)c1ccc2c(n1)N1C[C@@H](CC[C@@H](c3cc(C4=CCOCC4)ccn3)Nc3cccc(n3)S(=O)(=O)NC2=O)CC1(C)C (single isomer, unassigned) [Compound 125]	+++ (+++ is >60%)	< 1000	–

The remaining lines, values ahead:

Corrector Assay A % activity [1]	EC50 [nM]	Corrector Assay A % activity (given as a number, not a class symbol, % of triple combination control) [%]	SMILES
+++ (+++ is >60%)	< 1000	–	CC(C)(C)c1ccc2c(n1)N1C[C@@H](CC[C@@H](c3ncccc3Br)Nc3cccc(n3)S(=O)(=O)NC2=O)CC1(C)C (single isomer, unassigned) [Compound 53]
+ (+ is <30%)	> 3000	–	CC(C)(C)c1ccc2c(n1)N1C[C@@H](CC[C@@H](c3ncccc3Br)Nc3cccc(n3)S(=O)(=O)NC2=O)CC1(C)C (single isomer, unassigned) [Compound 54]
++ (++ is 30-60%)	< 1000	–	CC(C)(C)c1ccc2c(n1)N1C[C@@H](CCC(c3ncccc3Cl)Nc3cccc(n3)S(=O)(=O)NC2=O)CC1(C)C (single isomer, unassigned) [Compound 65]
+ (+ is <30%)	> 3000	–	CC(C)(C)c1ccc2c(n1)N1C[C@@H](CCC(c3ncccc3Cl)Nc3cccc(n3)S(=O)(=O)NC2=O)CC1(C)C (single isomer, unassigned) [Compound 66]
+++ (+++ is >60%)	< 1000	–	CC(C)(C)c1ccnc(C2CC[C@@H]3CN(c4nc(C(C)(C)C)ccc4C(=O)NS(=O)(=O)c4cccc(n4)N2)C(C)(C)C3)c1 (single isomer, unassigned) [Compound 75]
++ (++ is 30-60%)	< 1000	–	CC(C)(C)c1ccnc(C2CC[C@@H]3CN(c4nc(C(C)(C)C)ccc4C(=O)NS(=O)(=O)c4cccc(n4)N2)C(C)(C)C3)c1 (single isomer, unassigned) [Compound 76]
++ (++ is 30-60%)	< 1000	–	CC(C)(C)c1ccc2c(n1)N1C[C@@H](CC[C@H](c3ccc(C(F)(F)F)cn3)Nc3cccc(n3)S(=O)(=O)NC2=O)CC1(C)C (single isomer, unassigned) [Compound 80]
+ (+ is <30%)	< 1000	–	CC(C)(C)c1ccc2c(n1)N1C[C@@H](CC[C@@H](c3ccc(C(F)(F)F)cn3)Nc3cccc(n3)S(=O)(=O)NC2=O)CC1(C)C (single isomer, unassigned) [Compound 81]
++ (++ is 30-60%)	< 1000	–	CC(C)(C)c1ccc2c(n1)N1C[C@@H](CCC(c3cc(C(N)=O)ccn3)Nc3cccc(n3)S(=O)(=O)NC2=O)CC1(C)C (single isomer, unassigned) [Compound 82]
++ (++ is 30-60%)	< 1000	–	CC(C)(C)c1ccc2c(n1)N1C[C@@H](CCC(c3cc(C(N)=O)ccn3)Nc3cccc(n3)S(=O)(=O)NC2=O)CC1(C)C (single isomer, unassigned) [Compound 83]
++ (++ is 30-60%)	< 1000	–	CC(C)(C)c1ccc2c(n1)N1C[C@@H](CC[C@@H](c3cc(CCN)ccn3)Nc3cccc(n3)S(=O)(=O)NC2=O)CC1(C)C (single isomer, unassigned) [Compound 85]
–	< 1000	52.5	CC(C)(C)c1ccc2c(n1)N1C[C@@H](CC[C@@H](c3cc(C(F)(F)F)ccn3)Nc3cccc(n3)S(=O)(=O)NC2=O)CC1(C)C (single isomer, unassigned) [Compound 92]
+++ (+++ is >60%)	< 1000	–	CC(C)(C)c1ccc2c(n1)N1C[C@@H](CC[C@H](c3cc(C(F)(F)F)ccn3)Nc3cccc(n3)S(=O)(=O)NC2=O)CC1(C)C (single isomer, unassigned) [Compound 93]
++ (++ is 30-60%)	< 1000	–	CC(C)(C)c1ccc2c(n1)N1C[C@@H](CC[C@H](c3cccc(C(F)(F)F)n3)Nc3cccc(n3)S(=O)(=O)NC2=O)CC1(C)C (single isomer, unassigned) [Compound 94]
++ (++ is 30-60%)	< 1000	–	CC(C)(C)c1ccc2c(n1)N1C[C@@H](CC[C@@H](c3cccc(C(F)(F)F)n3)Nc3cccc(n3)S(=O)(=O)NC2=O)CC1(C)C (single isomer, unassigned) [Compound 95]
+++ (+++ is >60%)	< 1000	–	CC(C)(C)c1ccc2c(n1)N1C[C@@H](CCC(c3cc(CN)ccn3)Nc3cccc(n3)S(=O)(=O)NC2=O)CC1(C)C (single isomer, unassigned) [Compound 115]
+++ (+++ is >60%)	< 1000	–	CC(C)(C)c1ccc2c(n1)N1C[C@@H](CCC(c3cc(CN)ccn3)Nc3cccc(n3)S(=O)(=O)NC2=O)CC1(C)C (single isomer, unassigned) [Compound 116]
